Data taken from US20080096238A1, “HIGH THROUGHPUT ASSAY FOR HUMAN RHO KINASE ACTIVITY WITH ENHANCED SIGNAL-TO-NOISE RATIO” (ALCON, INC., priority 2004, published 2008).

Tests used:
Rabbit Eyes = experiment: Intraocular pressure reduction in rabbit eyes after topical ocular dosing; assay type: in vivo;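 note: mean IOP reduction per time point from 7-8 rabbits per group, drug-treated groups alongside vehicle-treated control groups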
[1] = tested on: Ocular Hypertensive Monkey Eyes; experiment: Intraocular pressure reduction in conscious ocular hypertensive cynomolgus monkey eyes after topical ocular dosing; assay type: in vivo;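 note: mean of 8 drug-treated monkeys per time point, IOP change expressed against a vehicle-dosed control group of 5 monkeys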
[2] = target: T1, Human Recombinant ROCK II Enzyme (Homo sapiens, UniProt O75116); experiment: High throughput human recombinant ROCK II enzyme inhibition assay (γ-33P-ATP, Long S6 substrate peptide, filter mat); assay type: biochemical; conditions: mean ± SEM; for Hill Coefficient (nH): Hill coefficient of the inhibition plots; for IC50: recombinant human ROCK II (aa 11-552), 100 μM ATP, 30 min at 30° C., read-out: Inhibition Constant (IC50)
T1 construct: purchased Upstate USA, Inc., Lake Placid, N.Y. 14-451
T1 sequence (O75116 11-552): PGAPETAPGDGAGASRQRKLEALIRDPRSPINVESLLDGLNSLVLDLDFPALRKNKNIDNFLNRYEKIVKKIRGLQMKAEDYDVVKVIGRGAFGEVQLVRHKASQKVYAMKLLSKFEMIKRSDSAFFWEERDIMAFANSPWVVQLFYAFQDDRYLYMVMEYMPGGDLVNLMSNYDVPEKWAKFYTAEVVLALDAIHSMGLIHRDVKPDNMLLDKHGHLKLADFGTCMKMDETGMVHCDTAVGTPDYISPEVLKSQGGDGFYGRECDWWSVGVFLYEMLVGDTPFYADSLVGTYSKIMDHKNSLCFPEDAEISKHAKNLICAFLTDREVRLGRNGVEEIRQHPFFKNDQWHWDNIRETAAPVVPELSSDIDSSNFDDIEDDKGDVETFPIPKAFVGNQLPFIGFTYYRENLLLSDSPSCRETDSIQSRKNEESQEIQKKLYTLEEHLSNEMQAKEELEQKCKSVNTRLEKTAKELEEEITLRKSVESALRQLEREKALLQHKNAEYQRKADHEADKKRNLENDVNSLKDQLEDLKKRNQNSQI
Procedure: The enzyme assays are performed using a Biomek 2000 Robotic Workstation (Beckman Instruments, Palo Alto, Calif.) in a 96-well format using γ-^33P-ATP (Perkin-Elmer Life Sciences, Boston, Mass.). Stock γ-^33P-ATP (3000 Ci/mmol) is diluted to 1 μCi/μl with the MgCl2/ATP cocktail solution. The concentrations of MgCl2/ATP used are 15 mM and 100 μM, respectively. […] The unutilized [γ-^33P]-ATP and other residual reagents are thereby eliminated from the filter mat but the radioactive phosphorylated peptide product is retained on the filter mat for quantification. The automated washing of the filter mat thereby enhances the signal-to-noise ratio of the assay thus rendering it into a sensitive assay. The filter mats bearing the captured radioactive phosphorylated product are then dried in a microwave oven for 15 sec, placed in special sample cellophane bag (Wallac Inc., Turku, Finland) designed for these filter mats and covered with 20 ml of Betaplate scintillation fluid (Perkin-Elmer Inc., Boston, Mass.). The bags are then sealed using a heat sealer device (Wallac Inc., Turku, Finland) and a roller used to evenly spread the scintillation fluid over the whole of the filter mat.
In a further embodiment of the present invention, the dried filter mat can be covered with a solid scintillant (MELTILEX®; Wallac Inc., Turku, Finland) that is melted directly onto the filter mat using a MELTILEX® heat sealer (Wallac Inc., Turku, Finland), a device designed for this purpose. The coated filter mat is then placed in a sample cellophane bag (Wallac Inc., Turku, Finland) designed for these filter mats that is then sealed and the radioactivity determined as described above. The solid scintillant assists in avoiding the spread of radioactivity from sample to sample on the dried filter mat and thus minimizes variation of the data. A solid scintillant also eliminates waste disposal of liquid scintillation fluid.
The raw data from the filter mats are then automatically sent electronically to a computer for semi-automated analyses using algorithms and a suite of programs (XLFITT computer program; IDBS corporation, Emeryville, Calif.) that perform non-linear, iterative, sigmoidal-fit analyses of the raw data.

[3] = topical ocular dose 500 μg, 1 Hour Post Dosing
[4] = topical ocular dose 500 μg, 2 Hours Post Dosing
[5] = topical ocular dose 500 μg, 3 Hours Post Dosing
[6] = topical ocular dose 500 μg, 4 Hours Post Dosing
[7] = topical ocular dose 1 mg, 1 Hour Post Dosing
[8] = topical ocular dose 1 mg, 3 Hours Post Dosing
[9] = topical ocular dose 300 μg, 1 Hour Post Dosing
[10] = topical ocular dose 300 μg, 3 Hours Post Dosing
[11] = topical ocular dose 300 μg, 6 Hours Post Dosing
[12] = topical ocular dose 1 mg, 6 Hours Post Dosing
[13] = topical ocular dose 300 μg, 2 Hours Post Dosing
[14] = topical ocular dose 300 μg, 4 Hours Post Dosing
[15] = topical ocular dose 500 μg, 6 Hours Post Dosing

Row | SMILES | % Max. IOP Reduction in Rabbit Eyes (Rabbit Eyes; [3]) [%] | % Max. IOP Reduction in Rabbit Eyes (Rabbit Eyes; [4]) [%] | % Max. IOP Reduction in Rabbit Eyes (Rabbit Eyes; [5]) [%] | % Max. IOP Reduction in Rabbit Eyes (Rabbit Eyes; [6]) [%] | % Max. IOP Reduction in Ocular Hypertensive Monkey Eyes [1, 9] [%] | % Max. IOP Reduction in Ocular Hypertensive Monkey Eyes [1, 10] [%] | % Max. IOP Reduction in Ocular Hypertensive Monkey Eyes [1, 11] [%] | % Max. IOP Reduction in Ocular Hypertensive Monkey Eyes [1, 7] [%] | % Max. IOP Reduction in Ocular Hypertensive Monkey Eyes [1, 8] [%] | % Max. IOP Reduction in Ocular Hypertensive Monkey Eyes [1, 12] [%] | Hill Coefficient (nH) [2] | % Max. IOP Reduction in Ocular Hypertensive Monkey Eyes [1, 3] [%] | % Max. IOP Reduction in Ocular Hypertensive Monkey Eyes [1, 5] [%] | % Max. IOP Reduction in Ocular Hypertensive Monkey Eyes [1, 15] [%] | also measured
1 | Cc1cncc2cccc(S(=O)(=O)N3CCCNCC3C)c12 (stereo not drawn) [A, HMN-1152] | 34 | 34 | 27 | 19 | 29 | 30 | 21 | 42 | 51 | 36 |  |  |  |  | % Max. IOP Reduction in Rabbit Eyes (Rabbit Eyes; [7]): 29%; % Max. IOP Reduction in Rabbit Eyes (Rabbit Eyes; topical ocular dose 1 mg, 2 Hours Post Dosing): 35%; % Max. IOP Reduction in Rabbit Eyes (Rabbit Eyes; [8]): 32%; % Max. IOP Reduction in Rabbit Eyes (Rabbit Eyes; topical ocular dose 1 mg, 4 Hours Post Dosing): 24%; % Max. IOP Reduction in Ocular Hypertensive Monkey Eyes ([1]; topical ocular dose 100 μg, 1 Hour Post Dosing): 28%; % Max. IOP Reduction in Ocular Hypertensive Monkey Eyes ([1]; topical ocular dose 100 μg, 3 Hours Post Dosing): 25%; % Max. IOP Reduction in Ocular Hypertensive Monkey Eyes ([1]; topical ocular dose 100 μg, 6 Hours Post Dosing): 19%
2 | Cc1cncc2c1=C(S(=O)(=O)N1CCCN(C)CC1C)CCC=2 (stereo not drawn) [B] |  |  |  |  |  |  |  |  |  |  | 0.6 ± 0.2 |  |  |  | IC50 [2]: 0.485 ± 0.207 µM
3 | O=S(=O)(c1cccc2cnccc12)N1CCCNCC1 [D, Fasudil, Fasudil] | 25 | 33 | 25 | 17 |  |  |  |  |  |  |  | 33 | 28 | 16 | % Max. IOP Reduction in Rabbit Eyes (Rabbit Eyes; [9]): 17%; % Max. IOP Reduction in Rabbit Eyes (Rabbit Eyes; [13]): 29%; % Max. IOP Reduction in Rabbit Eyes (Rabbit Eyes; [10]): 26%; % Max. IOP Reduction in Rabbit Eyes (Rabbit Eyes; [14]): 20%
4 | CC1CNCCN1S(=O)(=O)c1cccc2cnccc12 (stereo not drawn) [E, H-7] | 19 | 11 | 0 | 6 |  |  |  | 31 | 21 | 12 | 0.99 ± 0.13 |  |  |  | 
5 | Cc1cncc2cccc(S(=O)(=O)N3CCNC(C)C3)c12 (stereo not drawn) [F] |  |  |  |  |  |  |  |  |  |  | 0.94 ± 0.11 | 23 | 20 | 20 | 
6 | CC(N)[C@H]1CC[C@H](C(=O)Nc2ccccc2)CC1 (stereo partly drawn) [G, Y-27632] |  |  |  |  | 15 | 14 | 8 | 24 | 36 | 32 |  |  |  |  | % Max. IOP Reduction in Rabbit Eyes (Rabbit Eyes; topical ocular dose 2 mg, 1 Hour Post Dosing): 26%; % Max. IOP Reduction in Rabbit Eyes (Rabbit Eyes; topical ocular dose 2 mg, 2 Hours Post Dosing): 28%; % Max. IOP Reduction in Rabbit Eyes (Rabbit Eyes; topical ocular dose 2 mg, 3 Hours Post Dosing): 29%; % Max. IOP Reduction in Rabbit Eyes (Rabbit Eyes; topical ocular dose 2 mg, 4 Hours Post Dosing): 27%
7 | Cc1cncc2cccc(S(=O)(=O)N3CCCN(C)C(C)C3)c12 (stereo not drawn) [H] |  |  |  |  |  |  |  |  |  |  | 0.95 ± 0.16 |  |  |  | 
8 | CC1CN(S(=O)(=O)c2cccc3cnccc23)CCN1 (stereo not drawn) [I, HA-135] |  |  |  |  |  |  |  |  |  |  | 0.91 ± 0.28 | 19 | 15 | 1 | 
9 | O=S(=O)(c1cccc2c(Cl)cccc12)N1CCCNCC1 [J, ML-9] |  |  |  |  | 7 | 6 | 5 |  |  |  | 0.9 ± 0.3 |  |  |  | IC50 [2]: 12 µM; % Max. IOP Reduction in Rabbit Eyes (Rabbit Eyes; [9]): 8%; % Max. IOP Reduction in Rabbit Eyes (Rabbit Eyes; [13]): 23%; % Max. IOP Reduction in Rabbit Eyes (Rabbit Eyes; [10]): 0.4%; % Max. IOP Reduction in Rabbit Eyes (Rabbit Eyes; [14]): 6%
